Reference: ChEMBL document CHEMBL4651402, “Screening of ~5500 FDA-approved drugs and clinical candidates for anti-SARS-CoV-2 activity” (2021)
Numbered stars: 1 amine (or outer) side, 2 acyl side, 3 side chain; on linkers, the order of the positions; unused ones are H or OH. Bridge positions count the residues as written; N and C are the ends. Square brackets hold non-standard residues; d marks the D form. Peptide text beside a SMILES is read from it. I, II: the chains in the order shown. Actinocin(1to9) = Cc1c2oc3c(C)ccc(C(=O)[*:2])c3nc-2c(C(=O)[*:1])c(N)c1=O; NMeV = CN[C@H](C(=O)O)C(C)C; Sar = CNCC(=O)O

System: SARS-CoV-2
Assay: microbe, parasite or virus in culture
Settings: Severe acute respiratory syndrome coronavirus 2, Vero C1008, 48 h

| Compound | IC50 [µM] | IC50 (read-out: pIC50 (converted)) [µM] |
| --- | --- | --- |
| CCN(CC)C(=O)C1(c2ccccc2)CC1CN (configuration not stated) | > 20 | > 20 |
| CCCN(CCC)CCc1ccc(O)c(O)c1 | > 20 | > 20 |
| OC1(c2ccc(Cl)cc2)c2ccccc2C2=NCCN21 (configuration not stated) [MAZINDOL] | > 20 | > 20 |
| COC(=O)N[C@H](C(=O)N1CCC[C@H]1c1ncc(-c2ccc(-c3ccc(-c4cnc([C@@H]5CC6(CN5C(=O)[C@@H](NC(=O)OC)C(C)C)OCCO6)[nH]4)cc3)cc2)[nH]1)C(C)C | > 20 | > 20 |
| CC(C)(C)NCC(O)c1ccc(O)c(O)c1 (configuration not stated) [COLTEROL] | > 20 | > 20 |
| Cc1c2oc3c(C)ccc(C(=O)N[C@@H]4C(=O)N[C@@H](C(C)C)C(=O)N5CCC[C@H]5C(=O)N(C)CC(=O)N(C)[C@@H](C(C)C)C(=O)O[C@@H]4C)c3nc-2c(C(=O)N[C@@H]2C(=O)N[C@@H](C(C)C)C(=O)N3CCC[C@H]3C(=O)N(C)CC(=O)N(C)[C@@H](C(C)C)C(=O)O[C@@H]2C)c(N)c1=O (I: TVP[Sar][NMeV] / II: TVP[Sar][NMeV]; ester I:1-I:C, II:1-II:C; linker I:N-II:N via Actinocin(1to9)) | > 20 | > 20 |
| CN1C2CCC1CC(OC(c1ccccc1)c1ccccc1)C2 (configuration not stated) | > 20 | > 20 |
| CCOc1ccc(Cc2nccc3cc(OCC)c(OCC)cc23)cc1OCC [ETHAVERINE] | > 20 | > 20 |
| CC(=O)OCC[N+](C)(C)C [ACETYLCHOLINE] | > 20 | > 20 |
| CCCNC(C)C(=O)Nc1ccccc1C (configuration not stated) [PRILOCAINE] | > 20 | > 20 |
| C[N+]1(C)[C@@H]2C[C@@H](OC(=O)C(O)(c3cccs3)c3cccs3)C[C@H]1[C@@H]1O[C@@H]12 [TIOTROPIUM] | > 20 | > 20 |
| Nc1nc(NC2CC2)c2ncn([C@H]3C=C[C@@H](CO)C3)c2n1 [ABACAVIR] | > 20 | > 20 |
| Oc1ccc(/C=C/c2cc(O)cc(O)c2)cc1 [RESVERATROL] | > 20 | > 20 |
| CN(C)CCCN1c2ccccc2CCc2ccccc21 [IMIPRAMINE] | > 20 | > 20 |
| C=CCNC1=C2C[C@@H](C)C[C@H](OC)[C@H](O)[C@@H](C)/C=C(/C)[C@H](OC(N)=O)[C@@H](OC)/C=C\C=C(\C)C(=O)NC(=CC1=O)C2=O | > 20 | > 20 |
| OCCN1CCN(CCCN2c3ccccc3Sc3ccc(Cl)cc32)CC1 [PERPHENAZINE] | > 20 | > 20 |
| CCN1CC2CN(C)CC(C1)C2OC(=O)c1ccc(Cl)cc1 (configuration not stated) | > 20 | > 20 |
| CCCC1O[C@@H]2C[C@H]3[C@@H]4CCC5=CC(=O)C=C[C@]5(C)[C@H]4[C@@H](O)C[C@]3(C)[C@]2(C(=O)CO)O1 (some centres not stated) [BUDESONIDE] | > 20 | > 20 |

| Compound | IC50 [µM] | IC50 (read-out: pIC50 (converted)) [µM] |
| --- | --- | --- |
| CC(=O)O[C@H]1C[C@@H]2CC[C@@H]3[C@H](CC[C@@]4(C)[C@H]3C[C@H]([N+]3(C)CCCCC3)[C@@H]4OC(C)=O)[C@@]2(C)C[C@@H]1N1CCCCC1 [VECURONIUM] | > 20 | > 20 |
| C[C@@H]1NC(=O)CO[C@@H]1c1ccccc1 | > 20 | > 20 |
| CN1CCC(=C2c3ccccc3CC(=O)c3sccc32)CC1 [KETOTIFEN] | > 20 | > 20 |
| CCC1C(=O)Nc2ccc(F)cc2N1C(=O)OC(C)C (configuration not stated) | > 20 | > 20 |
| CC/C(=C(\CC)c1ccc(OP(=O)(O)O)cc1)c1ccc(OP(=O)(O)O)cc1 | > 20 | > 20 |
| CC(C)(Cc1ccccc1)NCC(O)c1ccc(O)c(NS(C)(=O)=O)c1 (configuration not stated) [ZINTEROL] | > 20 | > 20 |
| CCC(/C=C/C(C)C1CCC2C3CC=C4CC(O)CCC4(C)C3CCC12C)C(C)C (configuration not stated) | > 20 | > 20 |
| C=CC(=O)N1CCC(CNc2ncnc(N)c2-c2ccc(Oc3ccccc3)cc2)CC1 [EVOBRUTINIB] | > 20 | > 20 |
| CC(C)[C@H](N)C(=O)O[C@@H]1C[C@@H](n2ccc(N)nc2=O)O[C@H]1CO [VALTORCITABINE] | > 20 | > 20 |
| C[C@@H]1NC(=O)NC1=O | > 20 | > 20 |
| OCC(O)CN1CCN(c2ccccc2)CC1 (configuration not stated) [DROPROPIZINE] | > 20 | > 20 |
| O=C(O)[C@@H]1CCCN1 [PROLINE] | > 20 | > 20 |
| CC1(C)SCCN(S(=O)(=O)c2ccc(Oc3ccncc3)cc2)[C@@H]1C(=O)NO | > 20 | > 20 |
| CC(=O)S[C@@H]1CC2=CC(=O)CCC2(C)C2CCC3(C)C(CC[C@@]34CCC(=O)O4)C21 (some centres not stated) | > 20 | > 20 |
| O=C(O)C1CCc2cc(C3CCCCC3)c(Cl)cc21 (configuration not stated) | > 20 | > 20 |
| COC(=O)C1=COC(C)C2CN3CCC4(C(=O)Nc5ccccc54)C3CC12 (configuration not stated) | > 20 | > 20 |
| Cc1ccc2c(-c3ccc(F)cc3)nc(=O)n(C(C)C)c2c1 [FLUPROQUAZONE] | > 20 | > 20 |
| COC(=O)CCC(C)C1CCC2C3CC[C@@H]4C[C@H](O)CC[C@]4(C)C3C[C@H](O)[C@]12C (some centres not stated) | > 20 | > 20 |
